pIC50: −log10 of the molar value.
Test system: 945468-187-T-J2-PDC spheroids viability
Assay: Anticancer human tumor 945468-187-T-J2-PDC patient-derived rectal carcinoma cell line growth inhibition [PI3K]
Conditions: spheroids with HUVEC and MSC; for pIC50: curve of first compound; for viability, T/C: stronger effect = lower value
Method in brief: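 Viability of mixed-cell spheroids was determined after exposure to pairwise combinations, one partner being inavolisib, alpelisib, duvelisib or copanlisib. Highest tested concentration matched clinical Cmax where known and 10 microM where not, descending in half-log steps.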

[1] = second compound 0.00316 µM, first compound 0.0316 µM
[2] = second compound 0.00316 µM, first compound 0.1 µM
[3] = second compound 0.00316 µM, first compound 0.316 µM
[4] = second compound 0.00316 µM, first compound 1 µM
[5] = second compound 0.01 µM, first compound 0.0316 µM
[6] = second compound 0.01 µM, first compound 0.1 µM
[7] = second compound 0.01 µM, first compound 0.316 µM
[8] = second compound 0.01 µM, first compound 1 µM
[9] = second compound 0.0316 µM, first compound 0.0316 µM
[10] = second compound 0.0316 µM, first compound 0.1 µM
[11] = second compound 0.0316 µM, first compound 0.316 µM
[12] = second compound 0.0316 µM, first compound 1 µM
[13] = second compound 0.1 µM, first compound 0.0316 µM
[14] = second compound 0.1 µM, first compound 0.1 µM
[15] = second compound 0.1 µM, first compound 0.316 µM
[16] = second compound 0.1 µM, first compound 1 µM
[17] = second compound 0.316 µM, first compound 0.0316 µM
[18] = second compound 0.316 µM, first compound 0.1 µM
[19] = second compound 0.316 µM, first compound 0.316 µM
[20] = second compound 0.316 µM, first compound 1 µM
[21] = second compound 1 µM, first compound 0.0316 µM
[22] = second compound 1 µM, first compound 0.1 µM
[23] = second compound 1 µM, first compound 0.316 µM
[24] = second compound 1 µM, first compound 1 µM
[25] = second compound 0.00316 µM, first compound 3.16 µM
[26] = second compound 0.00316 µM, first compound 10 µM
[27] = second compound 0.01 µM, first compound 3.16 µM
[28] = second compound 0.01 µM, first compound 10 µM
[29] = second compound 0.0316 µM, first compound 3.16 µM
[30] = second compound 0.0316 µM, first compound 10 µM
[31] = second compound 0.1 µM, first compound 3.16 µM
[32] = second compound 0.1 µM, first compound 10 µM
[33] = second compound 0.316 µM, first compound 3.16 µM
[34] = second compound 0.316 µM, first compound 10 µM
[35] = second compound 1 µM, first compound 3.16 µM
[36] = second compound 1 µM, first compound 10 µM
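Further: spheroids exposed to compounds for seven days before reading.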

CCN1CCN(Cc2ccc(Nc3ncc(F)c(-c4cc(F)c5nc(C)n(C(C)C)c5c4)n3)nc2)CC1 + CC(Nc1ccc2c(c1)OCCn1cc(N3C(=O)OCC3C(F)F)nc1-2)C(N)=O
pIC50 (second compound 0.00316 µM): < 6.00 | pIC50 (second compound 0.01 µM): < 6.00 | pIC50 (second compound 0.0316 µM): < 6.00 | pIC50 (second compound 0.1 µM): < 6.00 | pIC50 (second compound 0.316 µM): 6.15 | pIC50 (second compound 1 µM): 6.48 | viability, T/C (second compound 0.00316 µM, first compound 0.00316 µM): 113% | viability, T/C (second compound 0.00316 µM, first compound 0.01 µM): 93.7% | viability, T/C [1]: 88.2% | viability, T/C [2]: 101% | viability, T/C [3]: 82.7% | viability, T/C [4]: 73.2% | viability, T/C (second compound 0.01 µM, first compound 0.00316 µM): 95.2% | viability, T/C (second compound 0.01 µM, first compound 0.01 µM): 96.7% | viability, T/C [5]: 90.9% | viability, T/C [6]: 102% | viability, T/C [7]: 143% | viability, T/C [8]: 71.3% | viability, T/C (second compound 0.0316 µM, first compound 0.00316 µM): 99% | viability, T/C (second compound 0.0316 µM, first compound 0.01 µM): 95.1% | viability, T/C [9]: 95.2% | viability, T/C [10]: 117% | viability, T/C [11]: 111% | viability, T/C [12]: 74.7% | viability, T/C (second compound 0.1 µM, first compound 0.00316 µM): 91.8% | viability, T/C (second compound 0.1 µM, first compound 0.01 µM): 91.3% | viability, T/C [13]: 94.3% | viability, T/C [14]: 79.3% | viability, T/C [15]: 94.1% | viability, T/C [16]: 59.1% | viability, T/C (second compound 0.316 µM, first compound 0.00316 µM): 78.2% | viability, T/C (second compound 0.316 µM, first compound 0.01 µM): 79.8% | viability, T/C [17]: 75.6% | viability, T/C [18]: 71.1% | viability, T/C [19]: 83.8% | viability, T/C [20]: 38.4% | viability, T/C (second compound 1 µM, first compound 0.00316 µM): 79.7% | viability, T/C (second compound 1 µM, first compound 0.01 µM): 67.2% | viability, T/C [21]: 83.4% | viability, T/C [22]: 82.4% | viability, T/C [23]: 51% | viability, T/C [24]: 28.2%

Cn1ncc(Cl)c1-c1cc(C(=O)NC(CN)Cc2cccc(F)c2)sc1Cl (stereo unspecified) + CC(Nc1ccc2c(c1)OCCn1cc(N3C(=O)OCC3C(F)F)nc1-2)C(N)=O
pIC50 (second compound 0.00316 µM): < 5.00 | pIC50 (second compound 0.01 µM): < 5.00 | pIC50 (second compound 0.0316 µM): < 5.00 | pIC50 (second compound 0.1 µM): < 5.00 | pIC50 (second compound 0.316 µM): < 5.00 | pIC50 (second compound 1 µM): < 5.00 | viability, T/C [1]: 82% | viability, T/C [2]: 76.6% | viability, T/C [3]: 66.5% | viability, T/C [4]: 70% | viability, T/C [25]: 58.5% | viability, T/C [26]: 73.8% | viability, T/C [5]: 80.1% | viability, T/C [6]: 75.4% | viability, T/C [7]: 95.7% | viability, T/C [8]: 75.8% | viability, T/C [27]: 66.7% | viability, T/C [28]: 95.7% | viability, T/C [9]: 99.8% | viability, T/C [10]: 88.3% | viability, T/C [11]: 95.9% | viability, T/C [12]: 71.6% | viability, T/C [29]: 62.3% | viability, T/C [30]: 96% | viability, T/C [13]: 93.2% | viability, T/C [14]: 86.1% | viability, T/C [15]: 78.4% | viability, T/C [16]: 71.8% | viability, T/C [31]: 62.2% | viability, T/C [32]: 81.5% | viability, T/C [17]: 70.6% | viability, T/C [18]: 79.5% | viability, T/C [19]: 77.1% | viability, T/C [20]: 83.9% | viability, T/C [33]: 63.6% | viability, T/C [34]: 65.4% | viability, T/C [21]: 70.3% | viability, T/C [22]: 56.6% | viability, T/C [23]: 68.5% | viability, T/C [24]: 74% | viability, T/C [35]: 39.6% | viability, T/C [36]: 66.4%

Cn1nccc1Nc1nccc(-c2ccn(C(CO)c3ccc(Cl)c(F)c3)c(=O)c2)n1 (stereo unspecified) + CC(Nc1ccc2c(c1)OCCn1cc(N3C(=O)OCC3C(F)F)nc1-2)C(N)=O
pIC50 (second compound 0.00316 µM): < 5.00 | pIC50 (second compound 0.01 µM): < 5.00 | pIC50 (second compound 0.0316 µM): < 5.00 | pIC50 (second compound 0.1 µM): < 5.00 | pIC50 (second compound 0.316 µM): < 5.00 | pIC50 (second compound 1 µM): < 5.00 | viability, T/C [1]: 92.2% | viability, T/C [2]: 114% | viability, T/C [3]: 88.5% | viability, T/C [4]: 102% | viability, T/C [25]: 90.7% | viability, T/C [26]: 79.9% | viability, T/C [5]: 124% | viability, T/C [6]: 109% | viability, T/C [7]: 101% | viability, T/C [8]: 89.1% | viability, T/C [27]: 91.9% | viability, T/C [28]: 74.8% | viability, T/C [9]: 118% | viability, T/C [10]: 102% | viability, T/C [11]: 92.6% | viability, T/C [12]: 80% | viability, T/C [29]: 83.6% | viability, T/C [30]: 77.6% | viability, T/C [13]: 113% | viability, T/C [14]: 90.6% | viability, T/C [15]: 124% | viability, T/C [16]: 111% | viability, T/C [31]: 101% | viability, T/C [32]: 73.9% | viability, T/C [17]: 74.3% | viability, T/C [18]: 105% | viability, T/C [19]: 86.5% | viability, T/C [20]: 83% | viability, T/C [33]: 85% | viability, T/C [34]: 81.7% | viability, T/C [21]: 79.2% | viability, T/C [22]: 72.4% | viability, T/C [23]: 84.3% | viability, T/C [24]: 89.1% | viability, T/C [35]: 75.5% | viability, T/C [36]: 83.5%

Reference: PubChem BioAssay AID1963972 (Molecular Pharmacology Branch, DTP, NCI, 2024)
